Data set [1] deals with Agrobacterium tumefaciens. As to the kind of experiment: Induction of virH gene expression in Agrobacterium tumefaciens A348 overexpressing pSM219 virH::lacZ assessed as beta-galactosidase activity at 100 uM after 18 hrs. The data set is classed as functional, organism-based.
In data set [2] the test system is Nicotiana tabacum. As to the kind of experiment: Increase in genetic transformation in tobacco leaf explant co-cultured with Agrobacterium tumefaciens A348 assessed as callus formation at 100 uM after 4 weeks. The data set is classed as functional.
In data set [3] the test system is Nicotiana tabacum. As to the kind of experiment: Increase in genetic transformation in tobacco leaf explant co-cultured with Agrobacterium tumefaciens A348 assessed as buds formation at 100 uM after 4 weeks. The format is functional.
In data set [4] the test system is Agrobacterium tumefaciens. As to the kind of experiment: Inhibition of virH gene expression in Agrobacterium tumefaciens A348 overexpressing pSM219 virH::lacZ assessed as beta-galactosidase activity at 100 uM after 18 hrs. The format is functional, organism-based.
Data set [5] concerns Agrobacterium tumefaciens. As to the kind of experiment: Induction of virH gene expression in Agrobacterium tumefaciens A348 overexpressing pSM219 virH::lacZ assessed as beta-galactosidase activity at 0.5 mM after 18 hrs relative to acetosyringone. The format is functional.
The subject of data set [6] is Nicotiana tabacum. The experiment in a line: Increase in transformation frequency of tobacco leaf explant co-cultured with Agrobacterium tumefaciens A348 assessed as explant survival at 100 uM after 21 days. The format is functional.
Data set [7] relates to Nicotiana tabacum. The experiment in a line: Increase in transformation frequency of tobacco leaf explant co-cultured with Agrobacterium tumefaciens A348 assessed as transgenic callus formation at 100 uM after 21 days. The format is functional.
Data set [8] concerns Agrobacterium tumefaciens. The experiment in a line: Decrease in virH gene expression in Agrobacterium tumefaciens A348 overexpressing pSM219 virH::lacZ assessed as beta-galactosidase activity at >=250 uM after 18 hrs. The data set is classed as functional, organism-based.
The subject of data set [9] is Agrobacterium tumefaciens. As to the kind of experiment: Toxicity in Agrobacterium tumefaciens A348 overexpressing pSM219 virH::lacZ assessed as […] at 5 mM after 18 hrs. The format is organism-based. Particulars: in vivo, 5000 µM.
A short description of data set [10]: Toxicity in tobacco leaf explant co-cultured with Agrobacterium tumefaciens A348 assessed as mortality at 500 uM after 7 days. The conditions noted are these: nicotiana tabacum, 168 h.
Data set [11] in a line: Toxicity in tobacco leaf explant co-cultured with Agrobacterium tumefaciens A348 assessed as mortality at 2 mM within 3 to 4 days. Particulars: nicotiana tabacum, 2000 µM.
A short description of data set [12]: Toxicity in tobacco leaf explant co-cultured with Agrobacterium tumefaciens A348 assessed as detrimental genetic transformation at 500 uM after 4 weeks. Particulars: nicotiana tabacum, 672 h.
Data set [13] relates to Agrobacterium tumefaciens. As to the kind of experiment: Induction of virH gene expression in Agrobacterium tumefaciens A348 overexpressing pSM219 virH::lacZ assessed as beta-galactosidase activity at 10 mM after 18 hrs relative to acetosyringone. The format is functional, organism-based.
The subject of data set [14] is Agrobacterium tumefaciens. The experiment in a line: Induction of virH gene expression in Agrobacterium tumefaciens A348 overexpressing pSM219 virH::lacZ assessed as beta-galactosidase activity at 1 mM after 18 hrs relative to acetosyringone. The data set is classed as functional.

Among the data in ChEMBL document CHEMBL1146493, “Effect of phenolic glycosides on Agrobacterium tumefaciens virH gene induction and plant transformation” (J Nat Prod, 2004) are Activity values, retold here.

The structures appear in SMILES notation. Active and inactive are the calls of the source. The calls are words filed in the database; no cut-off is given here.

Take `COc1cc(/C=C/C(C)=O)cc(OC)c1O`: the outcome in data set [1], in [2] and in [3] was Active.

As for `COc1cc(C(C)=O)cc(OC)c1O[C@H]1O[C@H](CO)[C@@H](O)[C@H](O)[C@H]1O`, the outcome in data set [4], in data set [2], in [3], in [6] and in [7] was Active. Also, the Activity in [5] turned out to be 25%.

Turning to `COc1cc(C(C)=O)ccc1O[C@@H]1OC[C@@H](O)[C@H](O)[C@H]1O`, the outcome in data set [4] was Active.

Regarding `COc1cc(C(C)=O)cc(OC)c1O` [ACETOSYRINGONE], the outcome in data set [1], in [8], in data set [2], in data set [3], in data set [6] and in data set [7] was Active. Besides, the Activity result in data set [9], in data set [10], in [11] and in data set [12] was “Toxic” throughout.

Turning to `COc1cc(C(C)=O)cc(OC)c1O[C@@H]1O[C@H](CO)[C@@H](O)[C@H](O)[C@H]1O` [GLUCOACETOSYRINGONE], the result in data set [4], in [13], in [2], in data set [3], in [6] and in [7] was Active. Besides, the Activity result in [11] and in [12] was “Non-toxic” in each case.

As for `CC(=O)c1ccc(O[C@@H]2OC[C@@H](O)[C@H](O)[C@H]2O)cc1`, the outcome in [4] was Active.

On to `COc1cc(C(=O)/C=C/c2ccc(O)cc2)cc(OC)c1O`, for which the outcome in data set [2] and in data set [3] was Active.

Turning to `COc1cc(C(=O)/C=C/c2ccc(O)cc2)cc(OC)c1O[C@@H]1O[C@H](CO)[C@@H](O)[C@H](O)[C@H]1O`, the result in data set [2] and in data set [3] was Active.

In the case of `COc1cc(/C=C/C(C)=O)cc(OC)c1O[C@@H]1O[C@H](CO)[C@@H](O)[C@H](O)[C@H]1O`, the result in [4], in data set [2] and in data set [3] was Active.

For `COc1cc(C(C)=O)cc(OC)c1O[C@@H]1OC[C@@H](O)[C@H](O)[C@H]1O`, the outcome in [4], in data set [2], in data set [3], in data set [6] and in data set [7] was Active. Further, the values for the Activity in data set [5] and in data set [14] were 25% and 50%, respectively.
